Reference: the supplement of paper PMC10307832

Tests used:
Assay in all cases: relative viability (nuclei count vs DMSO), 5 days (fraction); higher = more cells survive
PAC-1 + Tozasertib = compound: C=CCc1cccc(/C=N/NC(=O)CN2CCN(Cc3ccccc3)CC2)c1O [PAC-1] + Cc1cc(Nc2cc(N3CCN(C)CC3)nc(Sc3ccc(NC(=O)C4CC4)cc3)n2)n[nH]1 [Tozasertib] (partner 0.1 µM)
Summary of the method: (§1)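 Lung cancer cell lines, seeded in 1536-well plates, were treated the following day by pin tool with a single drug or with five library-drug doses (not always all listed) in √10 steps on top of a fixed anchor-drug dose. Cells were fixed and nuclei stained in one step after 5 days, and nuclei were counted. Relative viability is the nuclei count for treated wells divided by that for vehicle wells, reported as medians of duplicate plates.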

BMX-IN-1 + Pemetrexed = compound: C=CC(=O)Nc1cc(-n2c(=O)ccc3cnc4ccc(-c5ccc(NS(C)(=O)=O)cc5)cc4c32)ccc1C [BMX-IN-1] + Nc1nc2[nH]cc(CCc3ccc(C(=O)N[C@@H](CCC(=O)O)C(=O)O)cc3)c2c(=O)[nH]1 [Pemetrexed] (partner 0.2 µM)
Summary of the method: as §1

PAC-1 + Dasatinib = compound: C=CCc1cccc(/C=N/NC(=O)CN2CCN(Cc3ccccc3)CC2)c1O [PAC-1] + Cc1nc(Nc2ncc(C(=O)Nc3c(C)cccc3Cl)s2)cc(N2CCN(CCO)CC2)n1 [Dasatinib] (partner 0.075 µM)
Summary of the method: as §1

BMX-IN-1 + Vorinostat = compound: C=CC(=O)Nc1cc(-n2c(=O)ccc3cnc4ccc(-c5ccc(NS(C)(=O)=O)cc5)cc4c32)ccc1C [BMX-IN-1] + O=C(CCCCCCC(=O)Nc1ccccc1)NO [Vorinostat] (partner 1 µM)
Summary of the method: as §1

BMX-IN-1 + Alpelisib = compound: C=CC(=O)Nc1cc(-n2c(=O)ccc3cnc4ccc(-c5ccc(NS(C)(=O)=O)cc5)cc4c32)ccc1C [BMX-IN-1] + Cc1nc(NC(=O)N2CCC[C@H]2C(N)=O)sc1-c1ccnc(C(C)(C)C(F)(F)F)c1 [Alpelisib] (partner 2 µM)
Summary of the method: as §1

| Cell Line | relative viability (PAC-1 + Tozasertib; first compound 0.02 µM) | relative viability (PAC-1 + Tozasertib; first compound 0.06325 µM) | relative viability (PAC-1 + Tozasertib; first compound 0.2 µM) | relative viability (PAC-1 + Tozasertib; first compound 2 µM) | relative viability (BMX-IN-1 + Pemetrexed; first compound 0.02 µM) | relative viability (BMX-IN-1 + Pemetrexed; first compound 0.2 µM) | relative viability (BMX-IN-1 + Pemetrexed; first compound 0.6325 µM) | relative viability (BMX-IN-1 + Pemetrexed; first compound 2 µM) | relative viability (PAC-1 + Dasatinib; first compound 0.02 µM) | relative viability (PAC-1 + Dasatinib; first compound 0.06325 µM) | relative viability (PAC-1 + Dasatinib; first compound 0.2 µM) | relative viability (PAC-1 + Dasatinib; first compound 2 µM) | relative viability (BMX-IN-1 + Vorinostat; first compound 0.02 µM) | relative viability (BMX-IN-1 + Vorinostat; first compound 0.2 µM) | relative viability (BMX-IN-1 + Vorinostat; first compound 0.6325 µM) | relative viability (BMX-IN-1 + Vorinostat; first compound 2 µM) | relative viability (BMX-IN-1 + Alpelisib; first compound 0.02 µM) | relative viability (BMX-IN-1 + Alpelisib; first compound 0.2 µM) | relative viability (BMX-IN-1 + Alpelisib; first compound 0.6325 µM) | relative viability (BMX-IN-1 + Alpelisib; first compound 2 µM) |
| --- | --- | --- | --- | --- | --- | --- | --- | --- | --- | --- | --- | --- | --- | --- | --- | --- | --- | --- | --- | --- |
| ChaGo-K-1 | 0.214 | 0.217 | 0.223 | 0.218 | 0.238 | 0.305 | 0.25 | 0.39 | 0.653 | 0.647 | 0.534 | 0.619 | 0.91 | 0.984 | 0.835 | 0.768 | – | – | – | – |
| EBC-1 | – | – | – | – | – | – | – | – | – | – | – | – | – | – | – | – | 0.701 | 0.698 | 1.01 | 0.812 |
| EKVX | 0.426 | 0.393 | 0.339 | 0.365 | 0.56 | 0.448 | 0.464 | 0.452 | 0.587 | 0.606 | 0.569 | 0.515 | 0.668 | 0.653 | 0.957 | 0.698 | 0.942 | 0.965 | 0.951 | 0.828 |
| EMC-BAC-2 | 0.297 | 0.263 | 0.265 | 0.274 | 0.448 | 0.486 | 0.466 | 0.44 | 0.388 | 0.303 | 0.346 | 0.326 | 0.497 | 0.58 | 0.414 | 0.45 | 0.891 | 0.873 | 0.783 | 0.625 |
| EPLC-272H | 0.257 | 0.314 | 0.273 | 0.278 | 0.304 | 0.278 | 0.235 | 0.316 | 0.447 | 0.365 | 0.387 | 0.268 | 0.351 | 0.288 | 0.417 | 0.383 | 0.973 | 1.15 | 1.08 | 0.94 |
| H3255 | 0.66 | 0.656 | 0.606 | 0.638 | 0.52 | 0.583 | 0.686 | 0.563 | 0.361 | 0.288 | 0.284 | 0.33 | 0.787 | 0.812 | 0.902 | 0.76 | 0.798 | 0.657 | 0.815 | 0.712 |
| HARA | 0.108 | 0.115 | 0.136 | 0.111 | 0.257 | 0.271 | 0.282 | 0.255 | 0.336 | 0.251 | 0.26 | 0.26 | 0.507 | 0.549 | 0.446 | 0.506 | 1.04 | 0.883 | 0.787 | 0.846 |
| HCC-15 | 0.398 | 0.458 | 0.449 | 0.378 | 0.2 | 0.218 | 0.192 | 0.218 | 0.631 | 0.675 | 0.606 | 0.619 | 0.833 | 0.93 | 0.86 | 0.869 | 1.08 | 1.02 | 0.924 | 0.882 |
| HCC-44 | 0.989 | 1.04 | 0.94 | 0.877 | 0.727 | 0.663 | 0.625 | 0.678 | – | – | – | – | 1.16 | 1.14 | 1.19 | 1.12 | 0.869 | 0.905 | 1.01 | 0.794 |
